Consider four compounds from paper PMC8764033, “Single-molecule analysis of specificity and multivalency in binding of short linear substrate motifs to the APC/C” (Nature Communications, 2022).

Experiment [1] deals with APC/C^Apc10-4A, Cdc20. In words: SMOR assay, yeast APC/C^Apc10-4A, Cdc20. The format is binding, Saccharomyces cerevisiae. How it is done: (§1) Yeast strains were derivatives of W303 and are listed in Supplementary Table 2. For APC/C purification, we used a strain carrying Cdc16-TAP and lacking Cdh1 (DOM1126); in most experiments, the strain also carried Apc1-GFP (NHY13). Yeast were grown in YPD media to OD600 = 0.8, collected and flash-frozen. Cells were lysed by bead beating in lysis buffer A (50 mM HEPES pH 7.5, 150 mM KCl, 10% glycerol, 0.2% Triton X-100, 63 µM B-glycerophosphate, 48 µM sodium fluoride, 1 µg ml^−1 pepstatin A, 1 µg ml^−1 leupeptin, 1 µg ml^−1 aprotinin, 1 mM PMSF, 1 mM DTT, 0.5 mM EDTA) and APC/C was purified using magnetic IgG beads. The beads were washed using wash buffer A (20 mM HEPES pH 7.5, 150 mM KCl, 10% Glycerol, 0.05% Triton X-100). After incubation with purified Cdh1 or Cdc20, the APC/C was cleaved off the beads with TEV protease in wash buffer A with 0.05% Tween-20 (for single-molecule studies) or 0.05% Triton X-100 (for ensemble assays such as ubiquitylation) and used immediately.
(§2) For all SMOR experiments, 24 × 50 mm high precision glass coverslips (Bioscience Tools) and drilled microscope slides were passivated with a combination of PEG and PEG-biotin (coverslips) or PEG only (slides) following a previously published protocol for SiMPull[31]. Reaction chambers (~20 µl) were created using double-sided tape and epoxy. Protein was immobilized on the surface with 0.2 mg ml^−1 NeutrAvidin in buffer C (20 mM HEPES pH 7.5, 150 mM KCl, 10% glycerol, 0.05% Tween-20, 1 mM DTT). Excess NeutrAvidin was washed away and incubated with either biotin-conjugated mouse monoclonal anti-Strep-Tag II antibody (LSBio, Cat. No. LS-C203632-100) or biotin-conjugated rabbit polyclonal anti-GFP antibody (Rockland, Cat. No. 600-406-215) diluted in buffer C + BSA (0.1 mg ml^−1; Molecular Biology Grade Bovine Serum Albumin). Activator WD40 and activated APC/C (typically 50 µl containing about 65 ng APC/C, of which only a small fraction is immobilized on the glass) were immobilized using anti-Strep-Tag II, while APC/C alone was immobilized with anti-GFP. SMOR results were similar when performed in the buffer (wash buffer B) used in polarization anisotropy.
(§3) To capture dynamic protein–protein interactions, dye-labeled substrate diluted in buffer C + BSA was added to the chamber containing immobilized proteins. Interactions were imaged by TIRF microscopy as described below. For optimal signal-to-noise ratio, peptide concentration was no greater than 1 nM. […]
(§4) Microscopy was performed with a Nikon Eclipse TE2000-E with Perfect Focus with a 100 × 1.49na oil, Apo TIRF DIC N2, 0.13-0.2, WD0.12 objective. Movies were recorded using the Andor iXon DU-897E-CSO. […]

In experiment [2] the test system is APC/C^Apc10-4A, Cdh1. Put plainly: SMOR assay, yeast APC/C^Apc10-4A, Cdh1. The experiment is classed as binding, Saccharomyces cerevisiae. How it is done: as §1, §2, §3, §4
Experiment [3] addresses T1, hCdc20^WD40 (Homo sapiens, UniProt Q12834).
T1 construct: human Cdc20 (aa 162–484; pNH188); made in house; host or cells: Sf9 insect cells (baculovirus)
Put plainly: Fluorescence anisotropy, 10 nM Cy5-labeled peptide, hCdc20^WD40. The format is binding. For orientation: In fluorescence polarisation assays a small probe gives low polarisation when free and higher when bound to something large.

Where [4] appears, read: Supplementary Table 1, replicate 1.
[5] abbreviates: Supplementary Table 1, replicate 2.

Where a SMILES comes first, the peptide text is derived from it.

T1 sequence (Q12834 162-484): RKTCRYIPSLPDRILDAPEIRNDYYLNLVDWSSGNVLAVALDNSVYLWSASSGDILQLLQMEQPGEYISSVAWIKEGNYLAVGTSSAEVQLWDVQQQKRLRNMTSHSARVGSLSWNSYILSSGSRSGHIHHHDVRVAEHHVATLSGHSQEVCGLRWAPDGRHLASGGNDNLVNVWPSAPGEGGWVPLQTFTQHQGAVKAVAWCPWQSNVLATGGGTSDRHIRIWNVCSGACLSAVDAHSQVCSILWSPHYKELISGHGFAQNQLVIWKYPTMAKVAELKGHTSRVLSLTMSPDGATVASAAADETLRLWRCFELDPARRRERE

In the case of `CC[C@H](C)[C@H](NC(=O)[C@H](CC(=O)O)NC(=O)[C@H](CO)NC(=O)[C@H](C)NC(=O)[C@H](C)NC(=O)[C@H](C)NC(=O)[C@H](C)NC(=O)[C@H](CCCCN)NC(=O)[C@@H]1CCCN1C(=O)[C@H](CCCCN)NC(=O)[C@H](CCC(N)=O)NC(=O)[C@@H](N)CCC(=O)O)C(=O)N[C@H](C(=O)N[C@@H](C)C(=O)N[C@@H](CO)C(=O)N[C@@H](Cc1ccccc1)C(=O)N[C@@H](CC(N)=O)C(=O)N[C@@H](CCCCN)C(=O)N[C@@H](CCSC)C(=O)N[C@@H](CC(N)=O)C(=O)N[C@@H](CCCCN)C(=O)O)[C@@H](C)O` [Hsl1 D box mutant] (H-EQKPKAAAASDITASFNKMNK-OH; N-terminus and C-terminus assumed), the “binding (in words)” value in experiment [1] and in experiment [2] was “No binding” in each case. The “Dwell Time (in words)” value in experiment [1] (setting [4]) and in experiment [2] (setting [4]) was “no binding” throughout.

With `CC[C@H](C)[C@H](NC(=O)[C@H](Cc1ccccc1)NC(=O)[C@H](CO)NC(=O)[C@H](CCCCN)NC(=O)[C@H](CO)NC(=O)[C@H](CCCNC(=N)N)NC(=O)[C@H](CC(N)=O)NC(=O)[C@H](CC(N)=O)NC(=O)[C@H](CC(=O)O)NC(=O)[C@H](CCCCN)NC(=O)[C@H](C)NC(=O)[C@H](C)NC(=O)[C@H](CC(C)C)NC(=O)[C@@H]1CCCN1C(=O)[C@H](CC(C)C)NC(=O)[C@H](CCCNC(=N)N)NC(=O)CNC(=O)[C@H](CCC(N)=O)NC(=O)[C@H](CCC(N)=O)NC(=O)[C@H](CCC(N)=O)NC(=O)[C@H](C)N)C(=O)N[C@@H](CCCCN)C(=O)O` [ySecurin D box] (H-AQQQGRLPLAAKDNNRSKSFIK-OH; N-terminus and C-terminus assumed), the “Dwell Time (in words)” value in experiment [1] (setting [4]), in experiment [1] (setting [5]), in experiment [2] (setting [4]) and in experiment [2] (setting [5]) was “single frame” throughout.

As for “LIYVDKENGEPGTR-K(Cy5) [hSecurin KEN, Cy5-labeled KEN box peptide of human securin/Pttg1]”, the “binding to human Cdc20 (in words)” value in experiment [3] is recorded as “not Cdc20”.

On to “LPKATRKALGTVNRATEKSVK-K(Cy5) [AurKB D box, Cy5-labeled D box peptide of Aurora B kinase]”, for which, in experiment [3], the “binding to human Cdc20 (in words)” value was “not Cdc20”.
